Patent US20010041346A1, “METHOD FOR ASSAYING COMPOUNDS AFFECTING SMOOTH MUSCLE CONTRACTILE STATE” (priority 1999, published 2001)
Blank lines part the entries; values can stand above or below the molecule they belong to.

Legend:
PP1M = assay: Phosphatase assay in anti-MBS immunopellets; assay type: biochemical, human
[1] = system: myosin light chain phosphorylation in rat aortic smooth muscle cells; assay: Agonist-stimulated myosin light chain phosphorylation in intact vascular smooth muscle cells; assay type: cell-based; conditions: n=3
From the text: The extent of agonist-stimulated myosin light chain phosphorylation was quantified in intact vascular smooth muscle cells transfected with either vector alone or a plasmid expressing the cGK1α leucine/isoleucine zipper domain (CGK1-59), to examine the effects of disrupting the cGK1α-MBS interaction on cGMP-mediated inhibition of myosin light chain phosphorylation. cGK1α1-59 was cloned into the mammalian expression vector pCI (Promega, Madison, Wis.). Rat aortic smooth muscle cells of passage 6 through 10 were transfected with either vector alone (pCI) or cDNA for the leucine/isoleucine zipper peptide from cGK (cGK1α1-59pCI) by electroporation. Cells were arrested in DME supplemented with insulin, ascorbic acid and transferrin, then stimulated with 2 μM of the thromboxane analogue U46619 for 1 minute in the absence or presence of 20 minute pretreatment with 1 mM 8-Br-cGMP. Following treatment, cells were precipitated with trichloroacetic acid, washed with acetone, and protein was subjected to glycerol-urea electrophoresis (Taylor et al., J. Biol Chem. 263, 14456, 1988). Myosin light chain phosphorylation state was quantified by immunoblotting the unphosphorylated and phosphorylated forms of myosin light chain with monoclonal antimyosin light chain antibody (Sigma, clone MY-21). Protein bands were analyzed by densitometry. Statistical analysis was performed using Student-Newman-Keuls method. Data represent the means+/−standard error of three separate experiments in duplicate.

[2] = target: T1, PP1M phosphatase activity (Homo sapiens, UniProt P62140); assay: Phosphatase assay in cGKIα immunopellets; assay type: biochemical
T1 construct: cGKIα was immunoprecipitated and phosphatase activity was assayed in the immunopellets as described herein; endogenous in cells; host or cells: human saphenous vein smooth muscle cells

[3] = target: T2, AL9 (carboxy-terminal 181 amino acids of MBS) (Homo sapiens, UniProt O14974); assay: Yeast two-hybrid interaction assay (HIS3 and LacZ reporter activation); assay type: binding; conditions: yeast strain Y190
T2 construct: expressed in transfected cells; host or cells: Saccharomyces cerevisiae Y190
T2 sequence (O14974 850-1030 limits assumed): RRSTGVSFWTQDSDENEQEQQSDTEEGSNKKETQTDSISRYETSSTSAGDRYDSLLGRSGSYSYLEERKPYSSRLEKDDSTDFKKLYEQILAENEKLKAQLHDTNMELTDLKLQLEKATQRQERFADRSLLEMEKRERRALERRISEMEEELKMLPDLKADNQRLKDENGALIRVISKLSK
Experimental: Colonies were lifted onto NitroPure nitrocellulose filters (MSI, Westboro, Mass.) which were then submerged in liquid nitrogen for 15 seconds, placed on presoaked Whatman #5 paper (in Z buffer: 60 mM Na2HPO4.7H2O, 40 mM NaH2PO4.H2O, 10 mM KCl, 1 mM MgSO4.7H2O), 50 mM β-mercaptoethanol, pH 7.0, and incubated at 37° for up to 12 hours.
Polypeptides interacting with cGK-PC97 were detected by their ability to activate transcription of histidine (HIS3) and β-galactosidase (LacZ) reporter genes via reconstitution of the Gal4 transcription factor. MaV103 colonies capable of growing on media lacking histidine were assayed for β-galactosidase activity using the colony-lift filter assay, according to standard techniques and as described herein. PC86 plasmids (containing the activated T cell library) from His3+, LacZ+ colonies were isolated and the library cDNA insert sequenced. 2.5×10^6 clones were screened from the T cell library.
To verify the interaction of AL9 with cGK1α, individual plasmids were introduced into S. cerevisiae strain Y190 (Clontech, Palo Alto, Calif.) by the lithium acetate method and assayed for reporter gene activation, as above. Y190 was transformed with cGK1α/GalDB or GalDB alone, in combination with AL9/GalAD or GalAD alone, and plated on Sc-His (synthetic complete medium, minus histidine) and YPD (yeast extract, peptone, dextrose) plates. β-galactosidase activity assays, on colonies from the YPD plate, were also performed. […] Thus, cotransformation of AL9 and cGK1α into S. cerevisiae confirmed the interaction of full-length cGK1α with the carboxy-terminal 181 amino acids of MBS.
Yeast strain Y190 was transformed with AL9/GalAD in combination with the cGK1α/GalDB truncation mutants and plated on YPD and Sc-His plates. Colony lift β-Galactosidase assays for the yeast colonies growing on the YPD plate were also performed. […] Thus, the C-terminus of MBS (AL9) interacts with the N-terminus of cGK1α (cGK1α1-59).
Site-directed mutagenesis was employed to replace selected leucine or isoleucine residues in the N-terminus of cGKIα. cGK1α1-59 was cloned into vector pcDNA3.1 (Invitrogen, Carlsbad, Calif.) using the method of Kunkel et al. (Kunkel et al., Methods in Enzymology, 154: 367-382, 1987). Three mutants of the leucine/isoleucine zipper of cGKIα were prepared: Leu12 and Ile19 to Ala (cGKLLZ1,2A); Leu26 to Pro (cGKLZ3P); Ile33 and Leu40 to Ala (cGKLZ4,5A). All mutants were confirmed by DNA sequencing, then subcloned into vector PC97 for expression in yeast. cGKLz1,2A, GKLZ3P, and GKLZ4,5A were each cotransformed with AL9 in yeast strain Y190 , and reporter gene activation assayed as described herein.

T1 sequence (P62140 whole entry): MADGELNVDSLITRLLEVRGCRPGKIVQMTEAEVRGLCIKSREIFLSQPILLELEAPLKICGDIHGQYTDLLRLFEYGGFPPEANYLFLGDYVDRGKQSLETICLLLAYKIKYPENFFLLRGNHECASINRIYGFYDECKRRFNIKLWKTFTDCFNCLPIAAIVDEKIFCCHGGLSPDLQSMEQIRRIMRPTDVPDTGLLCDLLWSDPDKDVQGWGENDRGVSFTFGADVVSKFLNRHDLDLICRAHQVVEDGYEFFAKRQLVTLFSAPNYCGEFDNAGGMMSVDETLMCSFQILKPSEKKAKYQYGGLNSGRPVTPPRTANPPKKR
T1 sequence (O14974 whole entry partner): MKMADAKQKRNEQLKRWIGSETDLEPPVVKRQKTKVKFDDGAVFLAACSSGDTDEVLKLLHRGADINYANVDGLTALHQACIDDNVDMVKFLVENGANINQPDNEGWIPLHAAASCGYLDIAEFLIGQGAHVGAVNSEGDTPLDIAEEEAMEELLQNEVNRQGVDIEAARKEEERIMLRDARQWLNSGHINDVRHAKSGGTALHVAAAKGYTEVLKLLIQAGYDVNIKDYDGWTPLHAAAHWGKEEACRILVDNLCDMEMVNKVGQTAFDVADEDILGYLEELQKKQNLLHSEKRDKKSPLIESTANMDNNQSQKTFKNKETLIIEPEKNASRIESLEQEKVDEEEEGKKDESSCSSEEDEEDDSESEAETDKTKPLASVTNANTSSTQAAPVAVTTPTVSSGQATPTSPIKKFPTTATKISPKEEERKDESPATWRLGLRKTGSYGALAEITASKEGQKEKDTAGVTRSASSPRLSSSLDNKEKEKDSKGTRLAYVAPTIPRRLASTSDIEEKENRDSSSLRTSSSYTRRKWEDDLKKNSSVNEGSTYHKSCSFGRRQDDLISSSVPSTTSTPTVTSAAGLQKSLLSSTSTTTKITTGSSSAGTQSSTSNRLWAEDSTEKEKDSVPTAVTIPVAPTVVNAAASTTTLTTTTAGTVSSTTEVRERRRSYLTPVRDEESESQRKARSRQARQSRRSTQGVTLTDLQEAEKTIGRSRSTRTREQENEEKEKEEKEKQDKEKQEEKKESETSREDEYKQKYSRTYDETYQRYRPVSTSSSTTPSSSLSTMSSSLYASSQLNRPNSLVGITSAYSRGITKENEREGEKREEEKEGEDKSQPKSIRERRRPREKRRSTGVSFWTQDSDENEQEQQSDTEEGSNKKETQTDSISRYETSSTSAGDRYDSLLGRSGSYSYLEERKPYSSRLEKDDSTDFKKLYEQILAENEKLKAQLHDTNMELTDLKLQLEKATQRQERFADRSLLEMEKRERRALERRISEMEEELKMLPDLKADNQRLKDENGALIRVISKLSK
T1 sequence (Q13976 whole entry partner): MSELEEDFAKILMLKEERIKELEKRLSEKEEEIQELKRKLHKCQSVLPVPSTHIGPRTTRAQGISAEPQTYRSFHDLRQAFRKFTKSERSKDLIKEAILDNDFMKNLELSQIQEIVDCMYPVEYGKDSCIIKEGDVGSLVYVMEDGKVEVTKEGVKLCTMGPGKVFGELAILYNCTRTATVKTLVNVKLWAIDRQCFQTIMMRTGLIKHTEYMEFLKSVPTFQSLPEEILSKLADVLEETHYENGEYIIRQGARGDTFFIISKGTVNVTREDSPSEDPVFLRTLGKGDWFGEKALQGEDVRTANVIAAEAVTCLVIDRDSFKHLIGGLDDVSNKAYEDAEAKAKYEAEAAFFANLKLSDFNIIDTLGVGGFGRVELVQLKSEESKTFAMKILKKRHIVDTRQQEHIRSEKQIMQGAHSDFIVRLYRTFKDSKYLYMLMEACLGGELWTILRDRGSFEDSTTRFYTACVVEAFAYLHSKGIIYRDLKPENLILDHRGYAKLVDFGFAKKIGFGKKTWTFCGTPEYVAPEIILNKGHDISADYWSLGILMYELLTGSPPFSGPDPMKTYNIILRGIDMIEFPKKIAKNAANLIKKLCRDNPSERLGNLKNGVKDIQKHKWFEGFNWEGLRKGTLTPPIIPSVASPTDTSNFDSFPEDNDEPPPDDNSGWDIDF

Molecule: Nc1nc2c(nc(Br)n2[C@@H]2O[C@@H]3COP(=O)(O)O[C@H]3[C@H]2O)c(=O)[nH]1 [8-bromo-cGMP]
increase of PP1 phosphatase activity in the MBS immunopellet (PP1M; 8-bromo-cGMP added to anti-MBS immunopellets, n=5): 32+/−13%
inhibition of U46619-stimulated myosin light chain phosphorylation ([1]; cells expressing cGK1-59, 20 minute pretreatment with 1 mM 8-Br-cGMP): 35%
inhibition of U46619-mediated myosin light chain phosphorylation ([1]; control-transfected cells, 20 minute pretreatment with 1 mM 8-Br-cGMP): 79+/−17%

Molecule: Nc1nc2c(nc(Sc3ccc(Cl)cc3)n2[C@@H]2O[C@@H]3CO[P@@](=O)(S)O[C@H]3[C@H]2O)c(=O)[nH]1 [Rp-8-pCPT-cGMPS]
effect on activation of PP1M by 8-bromo-cGMP (PP1M; preincubation of the complex with the inhibitor, two separate experiments): prevented

Molecule: CCCCC[C@H](O)/C=C/[C@@H]1[C@@H](C/C=C\CCCC(=O)O)[C@H]2CO[C@@H]1C2 [U46619]
myosin light chain phosphorylation ([1]; 2 μM U46619 for 1 minute, baseline 10+/−2%, vector control and cGK1-59-transfected cells): 68+/−2%

Molecule: C=C1[C@@H](O)[C@@H]2O[C@]3(CC[C@H](/C=C/[C@@H](C)[C@@H]4CC(C)=C[C@@]5(O[C@H](C[C@@](C)(O)C(=O)O)CC[C@H]5O)O4)O3)CC[C@H]2O[C@@H]1[C@@H](O)C[C@H](C)[C@H]1O[C@@]2(CCCCO2)CC[C@H]1C [okadaic acid]
inhibition at 0.002 µM ([2]; 2 nM okadaic acid, n=3, P=NS): 12%
inhibition at 1 µM ([2]; 1 μM okadaic acid, n=3, p<0.001 vs. untreated): 79%

Molecule: cGK1α1-59: cGK1α truncation mutant containing amino acids 1-59, leucine/isoleucine zipper domain (MSELEEDFAKILMLKEERIKELEKRLSEKEEEIQELKRKLHKCQSVLPVPSTHIGPRTT; isoform alpha; UniProt Q13976 1-59, looked up, fragment)
interaction with AL9/MBS in yeast two-hybrid (HIS and β-Gal reporter activation) [3]: interacted with AL9

Next, values leading:

interaction with AL9/MBS in yeast two-hybrid (HIS and β-Gal reporter activation) [3]: failed to interact with MBS
Molecule: cGKLZ1,2A: cGK1α1-59 mutant, Leu12 and Ile19 to Ala (MSELEEDFAKIAMLKEERAKELEKRLSEKEEEIQELKRKLHKCQSVLPVPSTHIGPRTT; isoform alpha; UniProt Q13976 1-59, looked up, variant L12A I19A)

interaction with AL9/MBS in yeast two-hybrid (HIS and β-Gal reporter activation) [3]: failed to interact with MBS
Molecule: cGKLZ3P: cGK1α1-59 mutant, Leu26 to Pro (MSELEEDFAKILMLKEERIKELEKRPSEKEEEIQELKRKLHKCQSVLPVPSTHIGPRTT; isoform alpha; UniProt Q13976 1-59, looked up, variant L26P)

interaction with AL9/MBS in yeast two-hybrid (HIS and β-Gal reporter activation) [3]: weak association with MBS
Molecule: cGKLZ4,5A: cGK1α1-59 mutant, Ile33 and Leu40 to Ala (MSELEEDFAKILMLKEERIKELEKRLSEKEEEAQELKRKAHKCQSVLPVPSTHIGPRTT; isoform alpha residues 1-59; UniProt Q13976 1-59, looked up, variant I33A L40A)

interaction with AL9/MBS in yeast two-hybrid (HIS and β-Gal reporter activation) [3]: failed to associate with AL9
B1: cGK1α68-446: cGK1α mutant corresponding to amino acids 68-446 (protein, UniProt Q13976 68-446, looked up, fragment)
chain: PQTYRSFHDLRQAFRKFTKSERSKDLIKEAILDNDFMKNLELSQIQEIVDCMYPVEYGKDSCIIKEGDVGSLVYVMEDGKVEVTKEGVKLCTMGPGKVFGELAILYNCTRTATVKTLVNVKLWAIDRQCFQTIMMRTGLIKHTEYMEFLKSVPTFQSLPEEILSKLADVLEETHYENGEYIIRQGARGDTFFIISKGTVNVTREDSPSEDPVFLRTLGKGDWFGEKALQGEDVRTANVIAAEAVTCLVIDRDSFKHLIGGLDDVSNKAYEDAEAKAKYEAEAAFFANLKLSDFNIIDTLGVGGFGRVELVQLKSEESKTFAMKILKKRHIVDTRQQEHIRSEKQIMQGAHSDFIVRLYRTFKDSKYLYMLMEACLGGEL
modifications: isoform alpha

interaction with AL9/MBS in yeast two-hybrid (HIS and β-Gal reporter activation) [3]: failed to associate with AL9
B2: cGK1α68-667: cGK1α mutant corresponding to amino acids 68-667 (protein, UniProt Q13976 68-667, looked up, fragment)
chain: PQTYRSFHDLRQAFRKFTKSERSKDLIKEAILDNDFMKNLELSQIQEIVDCMYPVEYGKDSCIIKEGDVGSLVYVMEDGKVEVTKEGVKLCTMGPGKVFGELAILYNCTRTATVKTLVNVKLWAIDRQCFQTIMMRTGLIKHTEYMEFLKSVPTFQSLPEEILSKLADVLEETHYENGEYIIRQGARGDTFFIISKGTVNVTREDSPSEDPVFLRTLGKGDWFGEKALQGEDVRTANVIAAEAVTCLVIDRDSFKHLIGGLDDVSNKAYEDAEAKAKYEAEAAFFANLKLSDFNIIDTLGVGGFGRVELVQLKSEESKTFAMKILKKRHIVDTRQQEHIRSEKQIMQGAHSDFIVRLYRTFKDSKYLYMLMEACLGGELWTILRDRGSFEDSTTRFYTACVVEAFAYLHSKGIIYRDLKPENLILDHRGYAKLVDFGFAKKIGFGKKTWTFCGTPEYVAPEIILNKGHDISADYWSLGILMYELLTGSPPFSGPDPMKTYNIILRGIDMIEFPKKIAKNAANLIKKLCRDNPSERLGNLKNGVKDIQKHKWFEGFNWEGLRKGTLTPPIIPSVASPTDTSNFDSFPEDNDEPPPDDNSGW
modifications: isoform alpha
